# Experimental data as given in patent publication US12644886B2, “Biosensor microarray compositions and methods” (Arizona Board of Regents on Behalf of Arizona State …, priority 2013, dated 2026).
# Target: Src kinase (Homo sapiens, UniProt P12931)
# Test: FET biosensor detection of Src kinase auto-phosphorylation (phosphokinase activity)
# Assay type: biochemical
# Excerpt: FIG. 6 FET Biosensor detection of phosphokinase activity.
# In some embodiments the biosensor microarray is used to quantify kinetic rates of interaction between one or more analytes in a test sample and the corresponding detector polypeptides. In other embodiments, the biosensor microarray is used to assess inhibition of a protein activity or a protein-protein interaction. For example, where the detector polypeptide is a protein kinase substrate or a kinase with autophosphorylation activity, phosphokinase activity can be detected in the presence or absence of a known or putative inhibitor of the specific phosphokinase activity (see, e.g. FIGS. 6-7). […] Further, where increased kinase phosphorylation is associated with a particular disease state, the kinase activity of particular biological samples can be assessed by contacting a biosensor microarray described herein with the relevant biological sample and detecting phosphorylation of one or more detector polypeptides. Protein kinases are important targets in a number of health condition, e.g., cancer, pulmonary hypertension, diabetes, Alzheimer's, Parkinson's, CNS diseases, macular degeneration, Idiopathic pulmonary fibrosis, systemic sclerosis, rheumatoid disorders, among other diseases, allowing discovery of kinase inhibitor drugs and applying kinase functional screening as disease diagnostics
# Sequence of Src kinase (P12931 whole entry): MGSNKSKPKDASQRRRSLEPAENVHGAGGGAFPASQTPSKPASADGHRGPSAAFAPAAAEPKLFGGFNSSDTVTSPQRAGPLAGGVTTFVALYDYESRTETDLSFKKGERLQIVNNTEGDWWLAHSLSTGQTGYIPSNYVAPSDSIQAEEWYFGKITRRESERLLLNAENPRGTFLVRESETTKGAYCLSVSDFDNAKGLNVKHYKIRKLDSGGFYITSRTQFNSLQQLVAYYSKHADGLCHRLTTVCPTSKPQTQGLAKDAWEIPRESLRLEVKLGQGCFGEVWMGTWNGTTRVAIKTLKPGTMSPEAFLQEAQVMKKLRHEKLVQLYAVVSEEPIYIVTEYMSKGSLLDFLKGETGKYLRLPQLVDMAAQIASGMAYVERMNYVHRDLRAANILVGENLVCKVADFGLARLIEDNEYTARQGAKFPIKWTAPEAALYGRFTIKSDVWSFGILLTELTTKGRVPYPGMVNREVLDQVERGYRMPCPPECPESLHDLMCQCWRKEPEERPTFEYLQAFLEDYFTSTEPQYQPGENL
smiles,measurement,setting,value
Nc1ncnc2c1ncn2[C@@H]1O[C@H](COP(=O)(O)OP(=O)(O)O)[C@@H](O)[C@H]1O [ADP],FDEC FET sensor response to Src kinase auto-phosphorylation upon addition,addition of ADP instead of ATP,no response
Nc1ncnc2c1ncn2[C@@H]1O[C@H](COP(=O)(O)OP(=O)(O)OP(=O)(O)O)[C@@H](O)[C@H]1O [ATP],threshold voltage response (FDEC FET response to Src kinase auto-phosphorylation by detecting H+),upon addition of 10 mM ATP,200 mV
CN[C@@H]1C[C@H]2O[C@@](C)([C@@H]1OC)n1c3ccccc3c3c4c(c5c6ccccc6n2c5c31)C(=O)NC4 [Staurosporine],Src kinase inhibition (real time detection of Src kinase autophosphorylation),"2 μM staurosporine, FET-based biosensor microarray",inhibition
